{"source": "patent US20240358693A1", "about": "“METHODS OF TREATING PAIN” (Aisa Pharma, Inc., priority 2023, published 2024)", "test_system": "participants with SSc-RP", "experiment": "Scleroderma Health Assessment Questionnaire (SHAQ): disability indices and visual analog scales", "assay_type": "in vivo, human", "settings": "PP Population, Part A, SSc patients, sensitivity analysis", "excerpt": "The standard, validated, patient reported outcome measures tool for SSc patients, the Scleroderma Health Assessment Questionnaire (SHAQ), will be used to assess the participant qualify of life. Details are attached in the Appendix. The participant quality of life will be scored, and a disability index calculated for each questionnaire completed by the patient at Screening and each in-clinic visit. The absolute change in participant quality of life from baseline to the end of each dosing period will be calculated similar to frequency data as before.\nThe SHAQ includes a Raynaud's VAS, which will be reported at screening and each in-clinic visit. The absolute change in Raynaud-VAS, assessed by the participants response to the SHAQ question ‘In the past 7 days, how much have your Raynaud's interfered with your daily activities?’ at baseline and the end of each dosing period will be calculated similar to frequency data as before.\nThe SHAQ is used to calculate a Disability Index to assess the participant qualify of life. The eight categories assessed by the Disability Index are 1) dressing and grooming, 2) arising, 3) eating, 4) walking, 5) hygiene, 6) reach, 7) grip, and 8) common daily activities. For each of these categories, patients report the amount of difficulty they have in performing two or three specific activities.\nThere are four possible responses for the Disability Index questions: • Without any difficulty=0 • With some difficulty=1 • With much difficulty=2 • Unable to do=3. • The highest score reported by the patient for any component question of the eight categories determines the score for that category. • If a component question is left blank or the response is too ambiguous to assign a score, then the score for that category is determined by the remaining completed question(s). • If all component questions are blank or if more than one answer is given, then follow up with the respondent is required. • If the respondent's mark is between the response columns, then move it to the closest one. If it's directly between the two, move it to the higher one.\nEach of the disability items on the SHAQ has a companion aids/devices variable that is used to record what type(s) of assistance, if any, the participant uses for his/her usual activities. These variables (see below) are coded as follows: • 0=No assistance is needed. • 1=A special device is used by the patient in his/her usual activities. • 2=The patient usually needs help from another person. • 3=The patient usually needs BOTH a special device AND help from another person.\nThe scoring variables and scoring rules permit the computation of two disability indices, the Standard Disability Index and the Alternative Disability Index.\nThis question results in a new set of category scores that are computed by adjusting the score for each category, if necessary, based on the patient's use of an aid or device or assistance for that category. If either devices and/or help from another person are checked for a category, the score is set to “2”, unless the score is already “3” (i.e., scores of “0” or “1” are increased to “2”). For example, if the highest score for the dressing category is “1”, and the patient says they use a device for dressing, the computed category score would be “2”. The sum of the computed categories scores is then calculated and divided by the number of categories answered. This gives a score in the 0 to 3 range.\nThe aid and device variables are not used to calculate the alternative disability index; it is calculated by adding the scores for each of the categories and dividing by the number of categories answered. This gives a score in the 0 to 3 range.\nThe standard, validated, patient reported outcome measures tool for SSc patients, the SHAQ, was collected at the time points specified in the study schedules (FIG. 2 and FIGS. 4A and 4B) to assess the participant's quality of life. The SHAQ included a Raynaud's VAS that will also be reported separately.", "key": {"[1]": {"settings": "Day 12 vs baseline, Subject 01-110 Day 12 score excluded"}, "[2]": {"settings": "In-Clinic Visit (Day 12), Subject 01-110 Day 12 score excluded"}}}
{"compound": "COCCOC(=O)C1=C(C)NC(C)=C(C(=O)OC/C=C/c2ccccc2)C1c1cccc([N+](=O)[O-])c1", "note": "(stereo not drawn) [Pooled Cilnidipine]", "values": [{"measurement": "SHAQ Visual Analogue Scale - Raynaud’s, Change from Baseline, Min", "setting": "Day 12 vs baseline", "result": "−2.40"}, {"measurement": "SHAQ Visual Analogue Scale - Raynaud’s, Change from Baseline, Q1", "setting": "Day 12 vs baseline", "result": "−1.050"}, {"measurement": "SHAQ Visual Analogue Scale - Raynaud’s, Change from Baseline, Q3", "setting": "Day 12 vs baseline", "result": 0.350}, {"measurement": "SHAQ Visual Analogue Scale - Raynaud’s, Percent Change from Baseline, Max", "setting": "Day 12 vs baseline", "result": 136.4, "unit": "%"}, {"measurement": "SHAQ Visual Analogue Scale - Raynaud’s, Percent Change from Baseline, Mean", "setting": "Day 12 vs baseline", "result": "−18.62", "unit": "%"}, {"measurement": "SHAQ Visual Analogue Scale - Raynaud’s, Percent Change from Baseline, Median", "setting": "Day 12 vs baseline", "result": "−33.33", "unit": "%"}, {"measurement": "SHAQ Visual Analogue Scale - Raynaud’s, Percent Change from Baseline, Min", "setting": "Day 12 vs baseline", "result": "−100.0", "unit": "%"}, {"measurement": "SHAQ Visual Analogue Scale - Raynaud’s, Percent Change from Baseline, Q1", "setting": "Day 12 vs baseline", "result": "−68.57", "unit": "%"}, {"measurement": "SHAQ Visual Analogue Scale - Raynaud’s, Percent Change from Baseline, Q3", "setting": "Day 12 vs baseline", "result": "−2.27", "unit": "%"}, {"measurement": "SHAQ Visual Analogue Scale - Breathing Problems, Change from Baseline, Max", "setting": "[1]", "result": 0.60}, {"measurement": "SHAQ Visual Analogue Scale - Breathing Problems, Change from Baseline, Mean", "setting": "[1]", "result": "−0.388"}, {"measurement": "SHAQ Visual Analogue Scale - Breathing Problems, Change from Baseline, Median", "setting": "[1]", "result": 0.000}, {"measurement": "SHAQ Visual Analogue Scale - Breathing Problems, Change from Baseline, Min", "setting": "[1]", "result": "−2.00"}, {"measurement": "SHAQ Visual Analogue Scale - Breathing Problems, Change from Baseline, Q1", "setting": "[1]", "result": "−1.000"}, {"measurement": "SHAQ Visual Analogue Scale - Breathing Problems, Change from Baseline, Q3", "setting": "[1]", "result": 0.150}, {"measurement": "SHAQ Visual Analogue Scale - Breathing Problems, Percent Change from Baseline, Max", "setting": "[1]", "result": 150.0, "unit": "%"}, {"measurement": "SHAQ Visual Analogue Scale - Breathing Problems, Percent Change from Baseline, Mean", "setting": "[1]", "result": "−0.22", "unit": "%"}, {"measurement": "SHAQ Visual Analogue Scale - Breathing Problems, Percent Change from Baseline, Median", "setting": "[1]", "result": "−16.00", "unit": "%"}, {"measurement": "SHAQ Visual Analogue Scale - Breathing Problems, Percent Change from Baseline, Min", "setting": "[1]", "result": "−100.0", "unit": "%"}, {"measurement": "SHAQ Visual Analogue Scale - Breathing Problems, Percent Change from Baseline, Q1", "setting": "[1]", "result": "−66.67", "unit": "%"}, {"measurement": "SHAQ Visual Analogue Scale - Breathing Problems, Percent Change from Baseline, Q3", "setting": "[1]", "result": 31.58, "unit": "%"}, {"measurement": "SHAQ Alternative Disability Index, Max", "setting": "In-Clinic Visit (Day 12)", "result": 1.25}, {"measurement": "SHAQ Alternative Disability Index, Mean", "setting": "In-Clinic Visit (Day 12)", "result": 0.391}, {"measurement": "SHAQ Alternative Disability Index, Median", "setting": "In-Clinic Visit (Day 12)", "result": 0.188}, {"measurement": "SHAQ Alternative Disability Index, Min", "setting": "In-Clinic Visit (Day 12)", "result": 0.00}, {"measurement": "SHAQ Alternative Disability Index, Q1", "setting": "In-Clinic Visit (Day 12)", "result": 0.000}, {"measurement": "SHAQ Alternative Disability Index, Q3", "setting": "In-Clinic Visit (Day 12)", "result": 0.750}, {"measurement": "SHAQ Visual Analogue Scale - Finger Ulcers, Max", "setting": "In-Clinic Visit (Day 12)", "result": 1.90}, {"measurement": "SHAQ Visual Analogue Scale - Finger Ulcers, Mean", "setting": "In-Clinic Visit (Day 12)", "result": 0.463}, {"measurement": "SHAQ Visual Analogue Scale - Finger Ulcers, Median", "setting": "In-Clinic Visit (Day 12)", "result": 0.000}, {"measurement": "SHAQ Visual Analogue Scale - Finger Ulcers, Min", "setting": "In-Clinic Visit (Day 12)", "result": 0.00}, {"measurement": "SHAQ Visual Analogue Scale - Finger Ulcers, Q1", "setting": "In-Clinic Visit (Day 12)", "result": 0.000}, {"measurement": "SHAQ Visual Analogue Scale - Finger Ulcers, Q3", "setting": "In-Clinic Visit (Day 12)", "result": 0.900}, {"measurement": "SHAQ Visual Analogue Scale - Intestinal Problems, Max", "setting": "In-Clinic Visit (Day 12)", "result": 3.80}, {"measurement": "SHAQ Visual Analogue Scale - Intestinal Problems, Mean", "setting": "In-Clinic Visit (Day 12)", "result": 0.975}, {"measurement": "SHAQ Visual Analogue Scale - Intestinal Problems, Median", "setting": "In-Clinic Visit (Day 12)", "result": 0.300}, {"measurement": "SHAQ Visual Analogue Scale - Intestinal Problems, Min", "setting": "In-Clinic Visit (Day 12)", "result": 0.00}, {"measurement": "SHAQ Visual Analogue Scale - Intestinal Problems, Q1", "setting": "In-Clinic Visit (Day 12)", "result": 0.000}, {"measurement": "SHAQ Visual Analogue Scale - Intestinal Problems, Q3", "setting": "In-Clinic Visit (Day 12)", "result": 1.700}, {"measurement": "SHAQ Visual Analogue Scale - Overall Disease Severity, Max", "setting": "In-Clinic Visit (Day 12)", "result": 5.20}, {"measurement": "SHAQ Visual Analogue Scale - Overall Disease Severity, Mean", "setting": "In-Clinic Visit (Day 12)", "result": 1.475}, {"measurement": "SHAQ Visual Analogue Scale - Overall Disease Severity, Median", "setting": "In-Clinic Visit (Day 12)", "result": 1.300}, {"measurement": "SHAQ Visual Analogue Scale - Overall Disease Severity, Min", "setting": "In-Clinic Visit (Day 12)", "result": 0.00}, {"measurement": "SHAQ Visual Analogue Scale - Overall Disease Severity, Q1", "setting": "In-Clinic Visit (Day 12)", "result": 0.350}, {"measurement": "SHAQ Visual Analogue Scale - Overall Disease Severity, Q3", "setting": "In-Clinic Visit (Day 12)", "result": 1.650}, {"measurement": "SHAQ Visual Analogue Scale - Pain, Max", "setting": "In-Clinic Visit (Day 12)", "result": 4.30}, {"measurement": "SHAQ Visual Analogue Scale - Pain, Mean", "setting": "In-Clinic Visit (Day 12)", "result": 1.875}, {"measurement": "SHAQ Visual Analogue Scale - Pain, Median", "setting": "In-Clinic Visit (Day 12)", "result": 1.550}, {"measurement": "SHAQ Visual Analogue Scale - Pain, Min", "setting": "In-Clinic Visit (Day 12)", "result": 0.00}, {"measurement": "SHAQ Visual Analogue Scale - Pain, Q1", "setting": "In-Clinic Visit (Day 12)", "result": 0.550}, {"measurement": "SHAQ Visual Analogue Scale - Pain, Q3", "setting": "In-Clinic Visit (Day 12)", "result": 3.250}, {"measurement": "SHAQ Visual Analogue Scale - Raynaud’s, Max", "setting": "In-Clinic Visit (Day 12)", "result": 4.40}, {"measurement": "SHAQ Visual Analogue Scale - Raynaud’s, Mean", "setting": "In-Clinic Visit (Day 12)", "result": 1.900}, {"measurement": "SHAQ Visual Analogue Scale - Raynaud’s, Median", "setting": "In-Clinic Visit (Day 12)", "result": 1.250}, {"measurement": "SHAQ Visual Analogue Scale - Raynaud’s, Min", "setting": "In-Clinic Visit (Day 12)", "result": 0.00}, {"measurement": "SHAQ Visual Analogue Scale - Raynaud’s, Q1", "setting": "In-Clinic Visit (Day 12)", "result": 0.700}, {"measurement": "SHAQ Visual Analogue Scale - Raynaud’s, Q3", "setting": "In-Clinic Visit (Day 12)", "result": 3.450}, {"measurement": "SHAQ Visual Analogue Scale - Breathing Problems, Max", "setting": "[2]", "result": 6.30}, {"measurement": "SHAQ Visual Analogue Scale - Breathing Problems, Mean", "setting": "[2]", "result": 1.213}, {"measurement": "SHAQ Visual Analogue Scale - Breathing Problems, Median", "setting": "[2]", "result": 0.200}, {"measurement": "SHAQ Visual Analogue Scale - Breathing Problems, Min", "setting": "[2]", "result": 0.00}, {"measurement": "SHAQ Visual Analogue Scale - Breathing Problems, Q1", "setting": "[2]", "result": 0.000}, {"measurement": "SHAQ Visual Analogue Scale - Breathing Problems, Q3", "setting": "[2]", "result": 1.500}]}
